In patent publication US9822114B2, “Tricyclic oxazolidinone antibiotic compounds” (Idorsia Pharmaceuticals Ltd, priority 2008, dated 2017):

Tested on: M. catarrhalis A894
Experiment: Minimal inhibitory concentration (MIC), microdilution method in cation-adjusted Mueller-Hinton Broth (CLSI M7-A7)
Assay type: cell-based
Conditions: strain A894
Method: Minimal inhibitory concentrations (MICs; mg/1) were determined in cation-adjusted Mueller-Hinton Broth by a microdilution method following the description given in “Methods for Dilution Antimicrobial Susceptibility Tests for Bacteria that Grow Aerobically”, Approved standard, 7th ed., Clinical and Laboratory Standards Institute (CLSI) Document M7-A7, Wayne, Pa., USA, 2006.

Compound	MIC for M. catarrhalis A894 [µg/mL]	MIC (Moraxella catarrhalis) [µg/mL]
N—((RS)-9-fluoro-4-oxo-1,2-dihydro-4H-pyrrolo[3,2,1-ij]quinolin-1-yl)-N-{3-[(R)-2-oxo-3-(3-oxo-3,4-dihydro-2H-benzo[1,4]thiazin-6-yl)-oxazolidin-5-yl]-propyl}-acetamide and (RS)-1-{3-[(R)-3-(4-acetyl-3-oxo-3,4-dihydro-2H-benzo[1,4]thiazin-6-yl)-2-oxo-oxazolidin-5-yl]-propylamino}-9-fluoro-1,2-dihydro-pyrrolo[3,2,1-ij]quinolin-4-one [Example 172]	0.25	
O=C1COc2ccc(N3C[C@H](CCCN[C@@H]4Cn5c(=O)ccc6cccc4c65)OC3=O)cc2N1 [Example 86, (S)-1-{3-[(S)-2-oxo-3-(3-oxo-3,4-dihydro-2H-benzo[1,4]oxazin-6-yl)-oxazolidin-5-yl]-propylamino}-1,2-dihydro-pyrrolo[3,2,1-ij]quinolin-4-one]		≤ 0.031
